This is an account of results in ChEMBL document CHEMBL1149212, “Synthesis and biological evaluation of imidazole-based small molecule antagonists of the melanocortin 4 receptor (MC4-R)” (Bioorg Med Chem Lett, 2004).

In one series the test system is HEK293. As to the kind of experiment: Ability to decrease the intracellular cAMP levels induced by 1 nM NDP-MSH in HEK293/ hMC4 cells. It counts as functional, cell-based. The conditions noted are these: Homo sapiens. On the technique in general: Changes in cAMP serve as a functional read-out for many G protein-coupled receptors.
The target of a further series is Melanocortin receptor 4 (Homo sapiens, UniProt P32245). As to the kind of experiment: In vitro binding affinity towards melanocortin 4 receptor.
Sequence of Melanocortin receptor 4 (P32245 whole entry): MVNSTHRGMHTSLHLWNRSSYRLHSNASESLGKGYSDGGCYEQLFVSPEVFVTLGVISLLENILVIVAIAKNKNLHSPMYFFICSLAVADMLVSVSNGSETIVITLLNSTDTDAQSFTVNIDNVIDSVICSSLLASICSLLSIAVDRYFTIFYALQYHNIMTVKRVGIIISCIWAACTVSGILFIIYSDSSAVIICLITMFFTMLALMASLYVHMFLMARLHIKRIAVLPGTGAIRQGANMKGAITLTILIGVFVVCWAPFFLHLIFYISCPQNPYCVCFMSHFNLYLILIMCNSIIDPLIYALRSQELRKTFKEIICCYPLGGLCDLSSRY
Series [1] in a line: Cmax in rat. Particulars: in vivo. It counts as ADME, organism-based.
Series [2] is described as follows: AUC in rat p.o. Particulars: plasma, po. Format: ADME, organism-based.
A short description of series [3]: Plasma clearance in rat p.o. It counts as ADME, organism-based. Particulars: po.
Series [4] in a line: Cmax in rat at the dose of 1 mg/kg i.v. Also on record: dose 1 mg/kg, route intravenous. The conditions noted are these: in vivo, iv. Format: ADME, organism-based.
Series [5] can be described thus: Plasma clearance was determined. It counts as ADME, organism-based. Particulars: rat.
Series [6] is described as follows: AUC was determined. It counts as ADME. The conditions noted are these: plasma.

Molecules are shown by their SMILES.

For `COc1ccc(Br)cc1CCc1c(Cl)cccc1-c1nccn1C(C)C`, the IC50 (as a rule, the concentration that inhibits the measured activity by half) in the series with HEK293 worked out at 1400 nM. The Ki (in general, a dissociation constant, usually derived from enzyme kinetics or from competition with a known ligand) on Melanocortin receptor 4 worked out at 670 nM.
`CCc1cn(C)c(-c2ccccc2CCc2cc(Br)ccc2OC)n1` returned a concentration for half-maximal inhibition (IC50) in the series with HEK293 of 820 nM. Further, the affinity at Melanocortin receptor 4 corresponds to a Ki of 690 nM.
In turn, `Cn1ccnc1-c1cccc(Cl)c1CCc1cc(Br)ccc1O` had an IC50 in the series on HEK293 of 10200 nM. At Melanocortin receptor 4, this compound showed an inhibition constant (Ki) of 9300 nM.
`COc1ccc(Br)cc1CCc1c(Cl)cccc1-c1ncc2n1CCCC2`: the peak level in series [1] (Cmax) was 6.45 µM. Also, the AUC (in general, concentration integrated over time) in series [2] came out at 2 µM·h. For the same compound, in series [3], the apparent clearance CL/F (as a rule, the apparent clearance, not corrected for the fraction that reaches the circulation) is 18.3 mL/min/kg. The half-inhibitory concentration (IC50) in the series on HEK293 was found to be 590 nM. The inhibition constant (Ki) on Melanocortin receptor 4 is 340 nM.
`CCn1ccnc1-c1cccc(Cl)c1CCc1cc(Br)ccc1OC` returned an IC50 with HEK293 of 1800 nM. In addition, the Ki at Melanocortin receptor 4 was 310 nM.
Take `COc1ccc(Br)cc1CCc1c(Cl)cccc1-c1ncc[nH]1`: the midpoint of inhibition with HEK293, the IC50, lay at 580 nM. The compound also registered a Ki on Melanocortin receptor 4 of 1500 nM.
`COc1ccc(Br)cc1CCc1ccccc1-c1nc(C)cn1C` came in with an IC50 in the series with HEK293 of 240 nM. Moreover, the inhibitory constant (Ki) at Melanocortin receptor 4 stood at 270 nM.
`COc1ccc(Br)cc1CCc1ccccc1-c1nc(C)c(C)n1C`: the half-maximal inhibitory concentration (IC50) in the series with HEK293 came out at 200 nM. On Melanocortin receptor 4, this compound returned a Ki of 140 nM.
Compound `COc1ccc(Br)cc1CCc1c(F)cccc1-c1ncc2n1CCCC2` gave a half-inhibitory concentration (IC50) with HEK293 of 480 nM. Besides, the affinity at Melanocortin receptor 4, expressed as Ki, was 620 nM.
In the same order, the values of `COc1ccc(Br)cc1CCc1c(F)cccc1-c1ncc2n1CCC2` are 390 nM and 320 nM.
For the compound `CCc1cnc(-c2ccccc2CCc2cc(Br)ccc2OC)n1C`, in the series with HEK293, the IC50 came to 170 nM. Further, affinity on Melanocortin receptor 4 was put at a Ki of 320 nM.
In turn, `CCC(C)n1ccnc1-c1cccc(Cl)c1CCc1cc(Br)ccc1OC` (configuration not stated) returned an IC50 in the series with HEK293 of 2100 nM. The inhibitory constant (Ki) at Melanocortin receptor 4 was 2500 nM.
The compound `COc1ccc(Br)cc1CCc1c(Cl)cccc1-c1nccn1CC1CC1` came in with an IC50 in the series with HEK293 of 1700 nM. Moreover, the affinity at Melanocortin receptor 4 corresponds to a Ki of 2000 nM.
`COc1ccc(Br)cc1CCc1ccccc1-c1nc(C(C)C)cn1C` displayed an IC50 with HEK293 of 1200 nM. The inhibition constant (Ki) at Melanocortin receptor 4 was determined as 1600 nM.
In the series on HEK293, `CCCn1ccnc1-c1cccc(Cl)c1CCc1cc(Br)ccc1OC` came in with a half-inhibitory concentration (IC50) of 1900 nM. The same compound displayed a Ki at Melanocortin receptor 4 of 1300 nM.
The corresponding values for `COc1ccc(Br)cc1CCc1ccccc1-c1ncc(C)n1C` are 51 nM and 180 nM.
Take `COc1ccc(Br)cc1CCc1c(F)cccc1C1=NCCN1`: the highest level in series [4] (Cmax) was 0.031 µM. Further, in series [5], the clearance (in general, a measure of how efficiently the substance is removed, as volume per time) is 222 mL/min/kg. This compound also came in with an AUC in series [6] of 0.204 µM·h.
`COc1ccc(Br)cc1CCc1c(Cl)cccc1-c1nccn1C` showed an IC50 in the series on HEK293 of 1100 nM. Moreover, the affinity at Melanocortin receptor 4, expressed as Ki, was 300 nM.
In the same order, the values of `COc1ccc(Br)cc1CCc1c(Cl)cccc1-c1ncc2n1CCC2` are 710 nM and 180 nM.
